# Like-named read-outs stand apart in the source and are kept apart here.
# Legend:
# U87MG cells [1] = test: Cell uptake and localization by fluorescence microscopy in U87MG cells; type: cell-based, human; conditions: 1 hour incubation, fluorescence signal in cells/PBS buffer, n=9
# Procedure: The data was obtained by calculating by the following equation: Fluorescence signal in cell lines/Fluorescence signal in PBS buffer and normalized to F16 in the U87MG cell line. n=9. Data are presented as mean±SD.
# Tumor cell uptake of all F16 related compounds were studied by incubating two cancer cell lines (U87MG and MDA-MB-231) with the probes for 1 hour and then imaging was performed with a fluorescent microscope. Meanwhile, to investigate the localization of the F16 derivatives, after incubation with the probes, cells were co-stained with the commercially available dye Mitotrack, which is widely used for mitochondria staining. […] Under eGFP filter set (ξex 450/490 nm, λem 515/565 nm), no significant autofluorescence of the cells were observed, making it convenient to study the relative uptake of the probes directly by comparing their fluorescence signals.
# We then investigated the uptake of all the probes in U87MG and MDA-MB-231 cells at 1 hour incubation by quantitative analysis of fluorescent signals intensity of all F16 related compounds in the cells. The cellular uptake experiments were repeated nine times, and the relative cellular uptakes ability of different probes were calculated by comparing their percentage of cellular fluorescent signals and then normalized by that of F16 (FIG. 4). […]
# NIH 3T3 cells = test: Cell proliferation assay in NIH 3T3 cells (direct cell counting); type: cell-based, mouse; conditions: NIH 3T3 fibroblasts, 3000 cells/well, incubated 4 days, viable cells directly counted, read-out: IC50 (half inhibitory concentration) against NIH 3T3
# Procedure: (§1) To further confirm the relationship between cell uptake and antitumor activity, the half inhibitory concentrations (IC50) of these compounds against the U87MG cell line were measured. […] It should be noted that all these five compounds show minimum or even un-observable toxicity in the fibroblast cell line NIH 3T3 (IC50 all >100 μM, Table 1, FIG. 6), highlighting the treatment specificity of these mitochondrial targeted agents.
# (§2) Both U87MG and NIH 3T3 cell lines at a density of 3000 cells/well were incubated in 96-well plates overnight. The culture medium was replaced with 200 μL of culture medium in which the testing compound dispersed at various concentrations (0.5-200 μM). After incubation for 4 days, the viable cell numbers were checked and directly counted under microscopy (10×). A minimum of 1 mm×1 mm area was counted from each of at least three widely separated regions of cell culture. The cell proliferation rate was calculated by the following formula: cell proliferation rate (%)=(average cell number of sample wells/average cell number of control wells×100. The intact culture medium was evaluated as a control.
# U87MG cells [2] = test: Cell proliferation assay in U87MG cells (direct cell counting); type: cell-based, human; conditions: for IC50: 3000 cells/well, incubated 4 days, viable cells directly counted, read-out: IC50 (half inhibitory concentration) against U87MG
# Procedure: Apart from the imaging studies, we then investigated anti-tumor activities of all F16 related compounds by studying their antiproliferative effects in U87MG and MDA-MB-231 cell lines. After exposure to 5 or 10 μM of the compounds in the cancer cells for 4 days, the cell proliferative ratios to the control were measured (see FIG. 5). […] The different antiproliferative activities imply that the antitumor potency of the F16 related compounds is cell-dependent. Meanwhile, substituents in F16 and F16-TPP analogues played distinct roles, for instance, introduction of a fluorine atom in F16 barely influences activity of FF16 (P>0.05), while substitution of fluorine and methyl groups apparently impacts F16-TPP analogues in the U87MG cell line at a higher concentration of 10 μM.
# as §1, §2
IC50 (U87MG cells [2]) [µM],Improvement of bioactivity relative to F16 (U87MG IC50) (U87MG cells [2]; fluorine substitution in F16) [fold],"IC50 (U87MG cells [2]; Homo sapiens, U-87 MG, 96 h) [µM]",Structure (SMILES),"Relative uptake in U87MG cells, normalized to F16 (U87MG cells [1])",IC50 (NIH 3T3 cells) [µM],"IC50 (NIH 3T3 cells; Mus musculus, NIH3T3, 96 h) [µM]"
28 ± 1.2,~1.3,–,"C[n+]1ccc(/C=C/c2c[nH]c3ccc(F)cc23)cc1.[I-] [FF16, (E)-4-(1H-5-fluro-indole-3-ylvinyl)-N-methylpyridinium iodide]",~1,~491,–
–,–,36.5 ± 1.1,"C[n+]1ccc(/C=C/c2c[nH]c3ccccc23)cc1.[I-] [F16, (E)-4-(1H-indol-3-ylvinyl)-N-methylpyridinium iodide, reference compound]",~1,–,~100

# Source: patent US20150336993A1, “MITOCHONDRIA-TARGETED THERANOSTIC AGENTS” (The Board of Trustees of the Leland Stanford Junior …, priority 2014, published 2015)
